In PubChem BioAssay AID1963436 (Molecular Pharmacology Branch, DTP, NCI, 2024):
pIC50: −log10 of the molar value.

Tested on: OVCAR-5 complex spheroid (HUVEC/MSC), viability % T/C
Assay: Anticancer human tumor OVCAR-5 cell line growth inhibition [Asc];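 also: spheroids exposed to agents for 7 days before readout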;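 as to viability, T/C: 100% = DMSO vehicle-treated wells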
Settings: for pIC50: curve of first compound; for viability, T/C: stronger effect = lower value
Experimental: Multicellular complex tumor spheroid response to apoptosis pathway targeting inhibitors Alrizomadlin, Pelcitoclax, and Dasminapant in combination with a variety of drugs and investigational agents in selected tumor cell lines
The MDM2 inhibitor alrizomadlin, the Bcl-2/Bcl-xL inhibitor pelcitoclax, and the IAPs inhibitor dasminapant were evaluated both individually and in combination with standard of care and investigational anticancer small molecules within a complex spheroid model of solid tumors. . Complex spheroids include a stromal component modeled by human endothelial cells (HUVEC) and fibroblasts modeled by human mesenchymal stem cells (MSCs). The concentration ranges selected for each drug and investigational agent were based upon clinically achievable concentrations if the clinical Cmax of the agent was known.
Compounds. The drugs and investigational agents: alrizomadlin (APG-115; NSC831270), pelcitoclax (APG-1252; NSC835773), dasminapant (APG-1387;NSC834197), TAK-243 (NSC785004), copanlisib (NSC809693), olaparib (NSC753686), talazoparib (NSC767125), cobimetinib (NSC 768068), eltanexor (KPT-8602, NSC 794443), abemaciclib (NSC 768073), sotorasib (NSC818433), adagrasib (NSC 831453), MRTX-1133 (NSC 836407), Iadademestat (ORY1001, NSC 806812), and RMC-4630 (NSC839698), were obtained from the NCI Developmental Therapeutics Program Chemical Repository. The FDA-approved anticancer drug set is available from the Developmental Therapeutics Program at https://dtp.cancer.gov/organization/dscb/obtaining/available plates.htm. […] The stock solutions were prepared in dimethyl sulfoxide (DMSO, Sigma-Aldrich, St. Louis, MO, cat. D2650) at 800-fold the tested concentration and stored at -70 degrees C prior to their use. All drugs and investigational agents were tested over a range starting from a high concentration at or near the clinical Cmax and decreasing in half-log increments. If the clinical Cmax for an agent had not been determined, the highest concentration tested was 10 microM.
The patient-derived cancer (PDC) cell lines include five colon adenocarcinomas: 186277-243-T-J2-PDC, 616215-338-R-J1-PDC, 439559-082-T-J2-PDC, 463943-066-T-J2-PDC, and 519858-162-T-J1-PDC; three pancreatic carcinomas: 323965-272-R-J2-PDC, 521955-158-R6-J3-PDC, and 521955-158-R2-J5-PDC; two uterine sarcomas: 327498-152-R-J2-PDC and 993429-296-R-J1-PDC; two rhabdomyosarcomas: 755483-174-R-J1-PDC and 772245-204-R-J1-PDC; two soft tissue sarcomas: 126254-015-R-J1-PDC and 494315-158-R-J1-PDC; two malignant fibrous histiocytomas: 317291-083-R-J1-PDC and 596521-263-R-J1-PDC; two breast carcinomas: 171881-019-R-J1-PDC and 885512-296-R-J2-PDC; and one ovarian carcinoma: 6556581-035-R-J-PDC were obtained from the NCI PDMR, (https://pdmr.cancer.gov). The established cell lines HSSY-2 synovial sarcoma (RRID:CVCL 8719), SYO-1 synovial sarcoma (RRID:CVCL_7146), MPNST malignant peripheral neural sheath tumor were obtained from the Sloan Kettering Institute. The following established cell lines were purchased from the American Type Culture Collection (ATCC, Manassas, VA), Sor the received from the NCI repository:, PANC-1 pancreatic carcinoma (CRL-1469, RRID:CVCL_0480), OVCAR-5 ovarian carcinoma (RRID:CVCL_1628), OVCAR-8 ovarian carcinoma (RRID:CVCL_1629), , MCF-7 breast carcinoma (CRL-12584, RRID:CVCL_0031), MDA-MB-231 breast carcinoma (CRL-12532, RRID:CVCL_0062), NCI-H1876 small cell lung carcinoma (CRL-5902, RRID:CVCL_1503), NCI-H510A small cell lung carcinoma (HTB-184, RRID:CVCL_1565), NCI-H1417 (CRL-5869, RRID:CVCL_1469), and NCI-H196 small cell lung carcinoma (CRL-5823, RRID:CVCL_1509). Dr. Peter Houghton (Greehey Children's Cancer Research Institute, University of Texas Health Science Center, San Antonio, TX) provided Rh-18 rhabdomyosarcoma (RRID:CVCL_1659). Pooled donor human umbilical vein endothelial cells (HUVEC, Lonza, cat. CC-2519) and human mesenchymal stem cells (hMSC, Lonza, cat. PT-2501) were purchased from Lonza (Walkersville, MD).
Cell Culture. […]

[1] = second compound 0.03 µM, first compound 0.0316 µM
[2] = second compound 0.03 µM, first compound 0.1 µM
[3] = second compound 0.0949 µM, first compound 0.0316 µM
[4] = second compound 0.0949 µM, first compound 0.1 µM
[5] = second compound 0.3 µM, first compound 0.0316 µM
[6] = second compound 0.3 µM, first compound 0.1 µM
[7] = second compound 0.949 µM, first compound 0.0316 µM
[8] = second compound 0.949 µM, first compound 0.1 µM
[9] = second compound 3 µM, first compound 0.0316 µM
[10] = second compound 3 µM, first compound 0.1 µM

SMILES: NC1CCC(NC2CC2c2ccccc2)CC1 (stereo not given) + CCN1C(C(=O)NC23CCC(C(=O)O)(CC2)CC3)C(c2cccc(Cl)c2F)C2(C(=O)Nc3cc(Cl)ccc32)C12CCCCC2
- pIC50 (second compound 0.03 µM): < 7.00
- pIC50 (second compound 0.0949 µM): < 7.00
- pIC50 (second compound 0.3 µM): < 7.00
- pIC50 (second compound 0.949 µM): < 7.00
- pIC50 (second compound 3 µM): < 7.00
- viability, T/C (second compound 0.03 µM, first compound 0.000316 µM): 98.4%
- viability, T/C (second compound 0.03 µM, first compound 0.001 µM): 90.7%
- viability, T/C (second compound 0.03 µM, first compound 0.00316 µM): 88.6%
- viability, T/C (second compound 0.03 µM, first compound 0.01 µM): 85.9%
- viability, T/C [1]: 97.3%
- viability, T/C [2]: 89.8%
- viability, T/C (second compound 0.0949 µM, first compound 0.000316 µM): 89.9%
- viability, T/C (second compound 0.0949 µM, first compound 0.001 µM): 100%
- viability, T/C (second compound 0.0949 µM, first compound 0.00316 µM): 88.5%
- viability, T/C (second compound 0.0949 µM, first compound 0.01 µM): 82.5%
- viability, T/C [3]: 93%
- viability, T/C [4]: 85.7%
- viability, T/C (second compound 0.3 µM, first compound 0.000316 µM): 89.9%
- viability, T/C (second compound 0.3 µM, first compound 0.001 µM): 90.9%
- viability, T/C (second compound 0.3 µM, first compound 0.00316 µM): 93.2%
- viability, T/C (second compound 0.3 µM, first compound 0.01 µM): 77.5%
- viability, T/C [5]: 94.3%
- viability, T/C [6]: 97.3%
- viability, T/C (second compound 0.949 µM, first compound 0.000316 µM): 89.4%
- viability, T/C (second compound 0.949 µM, first compound 0.001 µM): 97.9%
- viability, T/C (second compound 0.949 µM, first compound 0.00316 µM): 97.6%
- viability, T/C (second compound 0.949 µM, first compound 0.01 µM): 88.9%
- viability, T/C [7]: 85.5%
- viability, T/C [8]: 95.2%
- viability, T/C (second compound 3 µM, first compound 0.000316 µM): 102%
- viability, T/C (second compound 3 µM, first compound 0.001 µM): 99.6%
- viability, T/C (second compound 3 µM, first compound 0.00316 µM): 105%
- viability, T/C (second compound 3 µM, first compound 0.01 µM): 83.7%
- viability, T/C [9]: 89.5%
- viability, T/C [10]: 91.5%

SMILES: C#Cc1c(F)ccc2cc(O)cc(-c3ncc4c(N5CC6CCC(C5)N6)nc(OCC56CCCN5CC(F)C6)nc4c3F)c12 (stereo not given) + CCN1C(C(=O)NC23CCC(C(=O)O)(CC2)CC3)C(c2cccc(Cl)c2F)C2(C(=O)Nc3cc(Cl)ccc32)C12CCCCC2
- pIC50 (second compound 0.03 µM): 5.17
- pIC50 (second compound 0.0949 µM): 5.17
- pIC50 (second compound 0.3 µM): 5.17
- pIC50 (second compound 0.949 µM): 5.19
- pIC50 (second compound 3 µM): 5.27
- viability, T/C [1]: 108%
- viability, T/C [2]: 108%
- viability, T/C (second compound 0.03 µM, first compound 0.316 µM): 83.3%
- viability, T/C (second compound 0.03 µM, first compound 1 µM): 78%
- viability, T/C (second compound 0.03 µM, first compound 3.16 µM): 73%
- viability, T/C (second compound 0.03 µM, first compound 10 µM): 39.1%
- viability, T/C [3]: 106%
- viability, T/C [4]: 105%
- viability, T/C (second compound 0.0949 µM, first compound 0.316 µM): 91.1%
- viability, T/C (second compound 0.0949 µM, first compound 1 µM): 88.8%
- viability, T/C (second compound 0.0949 µM, first compound 3.16 µM): 66.5%
- viability, T/C (second compound 0.0949 µM, first compound 10 µM): 40.8%
- viability, T/C [5]: 101%
- viability, T/C [6]: 107%
- viability, T/C (second compound 0.3 µM, first compound 0.316 µM): 106%
- viability, T/C (second compound 0.3 µM, first compound 1 µM): 74.8%
- viability, T/C (second compound 0.3 µM, first compound 3.16 µM): 66.2%
- viability, T/C (second compound 0.3 µM, first compound 10 µM): 42.4%
- viability, T/C [7]: 99%
- viability, T/C [8]: 109%
- viability, T/C (second compound 0.949 µM, first compound 0.316 µM): 102%
- viability, T/C (second compound 0.949 µM, first compound 1 µM): 84.4%
- viability, T/C (second compound 0.949 µM, first compound 3.16 µM): 65.5%
- viability, T/C (second compound 0.949 µM, first compound 10 µM): 41.3%
- viability, T/C [9]: 104%
- viability, T/C [10]: 107%
- viability, T/C (second compound 3 µM, first compound 0.316 µM): 107%
- viability, T/C (second compound 3 µM, first compound 1 µM): 79.5%
- viability, T/C (second compound 3 µM, first compound 3.16 µM): 61.2%
- viability, T/C (second compound 3 µM, first compound 10 µM): 39.6%
